Laboratory results from patent US6090828A, “5-aryleheteroarylalkyl-1,3,5-trisubstituted-1,2,4-triazole compounds for treatment of circulatory disorders” (priority 1997, dated 2000).
Where two headings read alike, the source gives them in different places.

Legend:
[1] = target: smooth muscle angiotensin II receptor; experiment: Assay A: Angiotensin II Binding Activity; conditions: 50% displacement of specifically bound 125I-AII; rat uterine membranes; pH 7.5; 25° C., 60 min
Description: Compounds of the invention were tested for ability to bind to the smooth muscle angiotensin II receptor using a rat uterine membrane preparation. […] Rat uterine membranes were prepared from fresh tissue. All procedures were carried out at 4° C. Uteri were stripped of fat and homogenized in phosphate-buffered saline at pH 7.4 containing 5 mM EDTA. The homogenate was centrifuged at 1500×g for 20 min., and the supernatant was recentrifuged at 100,000×g for 60 min. The pellet was resuspended in buffer consisting of 2 mM EDTA and 50 mM Tris-HCl (pH 7.5) to a final protein concentration of 4 mg/ml. […] The reaction was initiated by the addition of membrane protein and the mixture was incubated at 25° C. for 60 min. The incubation was terminated with ice-cold 50 mM Tris-HCl (pH 7.5) and the mixture was filtered to separate membrane-bound labelled peptide from the free ligand. The incubation tube and filter were washed with ice-cold buffer. Filters were assayed for radioactivity in a Micromedic gamma counter. Nonspecific binding was defined as binding in the presence of 10 μM of unlabelled AII. Specific binding was calculated as total binding minus nonspecific binding. […] Binding data were analyzed by a nonlinear least-squares curve fitting program.

rabbit aortic rings = target: T1, rabbit aortic rings (Oryctolagus cuniculus, UniProt P34976); experiment: Assay B: In Vitro Vascular Smooth Muscle Response for AII; set-up: species or system rabbit (male New Zealand white); conditions: rabbit aorta rings, two rabbits per antagonist, antagonist 10^-5 M, 5 minutes, AII contraction, Schild
T1 construct: The thoracic aorta was removed, cleaned of adherent fat and connective tissue and then cut into 3-mm ring segments; from tissue; host or cells: rabbit thoracic aorta rings, endothelium removed
T1 sequence (P34976 1-359): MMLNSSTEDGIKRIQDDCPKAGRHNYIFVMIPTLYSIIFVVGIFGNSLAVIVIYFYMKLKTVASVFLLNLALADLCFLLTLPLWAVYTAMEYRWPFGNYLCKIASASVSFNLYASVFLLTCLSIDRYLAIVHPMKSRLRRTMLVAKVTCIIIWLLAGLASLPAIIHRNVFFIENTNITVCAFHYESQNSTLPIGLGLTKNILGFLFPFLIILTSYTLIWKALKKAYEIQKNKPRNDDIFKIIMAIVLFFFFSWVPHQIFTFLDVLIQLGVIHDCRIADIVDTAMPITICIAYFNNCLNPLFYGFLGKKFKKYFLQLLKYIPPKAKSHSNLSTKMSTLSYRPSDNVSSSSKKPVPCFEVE
Description: The compounds of the invention were tested for antagonist activity in rabbit aortic rings. Male New Zealand white rabbits (2-2.5 kg) were sacrificed using an overdose of pentobarbital and exsanguinated via the carotid arteries. The thoracic aorta was removed, cleaned of adherent fat and connective tissue and then cut into 3-mm ring segments. The endothelium was removed from the rings by gently sliding a rolled-up piece of filter paper into the vessel lumen. The rings were then mounted in a water-jacketed tissue bath, maintained at 37° C., between moveable and fixed ends of a stainless steel wire with the moveable end attached to an FT03 Grass transducer coupled to a Model 7D Grass Polygraph for recording isometric force responses. […] The preparations were equilibrated for one hour before approximately one gram of passive tension was placed on the rings. Angiotensin II concentration-response curves were then recorded (3×10^-10 to 1×10^-5 M). Each concentration of AII was allowed to elicit its maximal contraction, and then AII was washed out repeatedly for 30 minutes before rechallenging with a higher concentration of AII. Aorta rings were exposed to the test antagonist at 10^-5 M for 5 minutes before challenging with AII. Adjacent segments of the same aorta ring were used for all concentration-response curves in the presence or absence of the test antagonist. […] The pA2 value is the concentration of the antagonist which increases the EC50 value for AII by a factor of two. Each test antagonist was evaluated in aorta rings from two rabbits.

[2] = read-out: pA2 (first of two values) (converted)
[3] = read-out: pA2 (second of two values) (converted)

5-[2-[5-[[1-ethyl-3-(1,1-difluoroethyl)-1H-1,2,4-triazol-5-yl]methyl]-2-pyridinyl]phenyl]-1H-tetrazole [Example 15]
IC50 [1]: 1.7 µM

CCCCn1nc(CCc2ccccc2)nc1Cc1ccc(-c2ccccc2-c2nnn[nH]2)nc1 [Example 2, 5-[2-[5-[[1-butyl-3-(2-phenylethyl)-1H-1,2,4-triazol-5-yl]methyl]-2-pyridinyl]phenyl]-1H-tetrazole]
IC50 [1]: 0.017 µM | Kb (rabbit aortic rings; [2]): 0.0174 µM | Kb (rabbit aortic rings; [3]): 0.0107 µM

CCCCn1nc(/C=C/c2cccs2)nc1Cc1ccc(-c2ccccc2-c2nnn[nH]2)nc1 [Example 5, 5-[2-[5-[[1-butyl-3-[2-(2-thienyl)ethenyl]-1H-1,2,4-triazol-5-yl]methyl]-2-pyridinyl]phenyl]-1H-tetrazole]
IC50 [1]: 0.097 µM | Kb (rabbit aortic rings; [2]): 0.00646 µM | Kb (rabbit aortic rings; [3]): 0.00417 µM

CCCCCn1nc(CCCC)nc1Cc1ccc(-c2ccccc2-c2nnn[nH]2)nc1 [Example 6, 5-[2-[5-[(1-pentyl-3-butyl-1H-1,2,4-triazol-5-yl)methyl]-2-pyridinyl]phenyl]-1H-tetrazole]
IC50 [1]: 0.086 µM | Kb (rabbit aortic rings; [2]): 0.0251 µM | Kb (rabbit aortic rings; [3]): 0.0724 µM

CCCCCc1nc(Cc2ccc(-c3ccccc3-c3nnn[nH]3)nc2)n(CCCC)n1 [Example 7, 5-[2-[5-[(1-butyl-3-pentyl-1H-1,2,4-triazol-5-yl)methyl]-2-pyridinyl]phenyl]-1H-tetrazole]
IC50 [1]: 0.078 µM | Kb (rabbit aortic rings; [2]): 0.00933 µM | Kb (rabbit aortic rings; [3]): 0.0219 µM

CCCCc1nc(Cc2ccc(-c3ccccc3-c3nnn[nH]3)nc2)n(CC(CC)CC)n1 [Example 8, 5-[2-[5-[[1-(2-ethylbutyl)-3-butyl-1H-1,2,4-triazol-5-yl]methyl]-2-pyridinyl]phenyl]-1H-tetrazole]
IC50 [1]: 0.53 µM | Kb (rabbit aortic rings; [3]): 0.603 µM

CCCCn1nc(C(=O)CCC)nc1Cc1ccc(-c2ccccc2-c2nnn[nH]2)nc1 [Example 11, 5-[2-[5-[[1-butyl-3-(1-oxobutyl)-1H-1,2,4-triazol-5-yl]methyl]-2-pyridinyl]phenyl]-1H-tetrazole]
IC50 [1]: 0.064 µM | Kb (rabbit aortic rings; [2]): 0.0135 µM | Kb (rabbit aortic rings; [3]): 0.0195 µM

CCCCn1nc(C(F)CCC)nc1Cc1ccc(-c2ccccc2-c2nnn[nH]2)nc1 (stereo not shown) [Example 12, 5-[2-[5-[[1-butyl-3-(1-fluorobutyl)-1H-1,2,4-triazol-5-yl]methyl]-2-pyridinyl]phenyl]-1H-tetrazole]
IC50 [1]: 0.028 µM

CCCn1nc(C(F)F)nc1Cc1ccc(-c2ccccc2-c2nnn[nH]2)nc1 [Example 13, 5-[2-[5-[(1-propyl-3-difluoromethyl-1H-1,2,4-triazol-5-yl)methyl]-2-pyridinyl]phenyl]-1H-tetrazole]
IC50 [1]: 0.38 µM | Kb (rabbit aortic rings; [2]): 0.617 µM | Kb (rabbit aortic rings; [3]): 0.282 µM

CCCCn1nc(C(F)F)nc1Cc1ccc(-c2ccccc2-c2nnn[nH]2)nc1 [Example 14, 5-[2-[5-[(1-butyl-3-difluoromethyl-1H-1,2,4-triazol-5-yl)methyl]-2-pyridinyl]phenyl]-1H-tetrazole]
IC50 [1]: 0.42 µM | Kb (rabbit aortic rings; [2]): 0.038 µM | Kb (rabbit aortic rings; [3]): 0.178 µM

CCCn1nc(C(C)(F)F)nc1Cc1ccc(-c2ccccc2-c2nnn[nH]2)nc1 [Example 16, 5-[2-[5-[[1-propyl-3-(1,1-difluoroethyl)-1H-1,2,4-triazol-5-yl]methyl]-2-pyridinyl]phenyl]-1H-tetrazole]
IC50 [1]: 0.41 µM | Kb (rabbit aortic rings; [2]): 0.126 µM | Kb (rabbit aortic rings; [3]): 0.0661 µM

CCCCn1nc(C(C)(F)F)nc1Cc1ccc(-c2ccccc2-c2nnn[nH]2)nc1 [Example 17, 5-[2-[5-[[1-butyl-3-(1,1-difluoroethyl)-1H-1,2,4-triazol-5-yl]methyl]-2-pyridinyl]phenyl]-1H-tetrazole]
IC50 [1]: 0.16 µM | Kb (rabbit aortic rings; [2]): 0.0269 µM | Kb (rabbit aortic rings; [3]): 0.0182 µM

CCCn1nc(C(F)(F)CC)nc1Cc1ccc(-c2ccccc2-c2nnn[nH]2)nc1 [Example 18, 5-[2-[5-[[1-propyl-3-(1,1-difluoropropyl)-1H-1,2,4-triazol-5-yl]methyl]-2-pyridinyl]phenyl]-1H-tetrazole]
IC50 [1]: 0.37 µM | Kb (rabbit aortic rings; [2]): 0.0832 µM | Kb (rabbit aortic rings; [3]): 0.0776 µM

CCCCn1nc(C(F)(F)CC)nc1Cc1ccc(-c2ccccc2-c2nnn[nH]2)nc1 [Example 19, 5-[2-[5-[[1-butyl-3-(1,1-difluoropropyl)-1H-1,2,4-triazol-5-yl]methyl]-2-pyridinyl]phenyl]-1H-tetrazole]
IC50 [1]: 0.42 µM | Kb (rabbit aortic rings; [2]): 0.0204 µM | Kb (rabbit aortic rings; [3]): 0.0263 µM

CCCCn1nc(C(=O)NC)nc1Cc1ccc(-c2ccccc2-c2nnn[nH]2)nc1 [Example 23, 5-[2-[5-[[1-butyl-3-(N-methylamido)-1H-1,2,4-triazol-5-yl]methyl]-2-pyridinyl]phenyl]-1H-tetrazole]
IC50 [1]: 0.07 µM | Kb (rabbit aortic rings; [2]): 0.0708 µM | Kb (rabbit aortic rings; [3]): 0.0912 µM

CCCCn1nc(C(=O)NC(C)(C)C)nc1Cc1ccc(-c2ccccc2-c2nnn[nH]2)nc1 [Example 24, 5-[2-[5-[[1-butyl-3-(N-tertbutylamido)-1H-1,2,4-triazol-5-yl]methyl]-2-pyridinyl]phenyl]-1H-tetrazole]
IC50 [1]: 0.09 µM | Kb (rabbit aortic rings; [2]): 0.0324 µM | Kb (rabbit aortic rings; [3]): 0.12 µM

CCCn1nc(C(OC)OC)nc1Cc1ccc(-c2ccccc2-c2nnn[nH]2)nc1 [Example 25, 5-[2-[5-[[1-propyl-3-dimethoxymethyl-1H-1,2,4-triazol-5-yl]methyl]-2-pyridinyl]phenyl]-1H-tetrazole]
IC50 [1]: 0.18 µM | Kb (rabbit aortic rings; [2]): 0.0513 µM | Kb (rabbit aortic rings; [3]): 0.0955 µM

CCCCn1nc(C(OCCC)OCCC)nc1Cc1ccc(-c2ccccc2-c2nnn[nH]2)nc1 [Example 28, 5-[2-[5-[[1-butyl-3-dipropoxymethyl-1H-1,2,4-triazol-5-yl]methyl]-2-pyridinyl]phenyl]-1H-tetrazole]
IC50 [1]: 0.026 µM | Kb (rabbit aortic rings; [2]): 0.0389 µM | Kb (rabbit aortic rings; [3]): 0.0141 µM

CCCCn1nc(C(OC(C)C)OC(C)C)nc1Cc1ccc(-c2ccccc2-c2nnn[nH]2)nc1 [Example 29, 5-[2-[5-[[1-butyl-3-diisopropoxymethyl-1H-1,2,4-triazol-5-yl]methyl]-2-pyridinyl]phenyl]-1H-tetrazole]
IC50 [1]: 0.088 µM | Kb (rabbit aortic rings; [2]): 0.0288 µM | Kb (rabbit aortic rings; [3]): 0.0339 µM

CCCCn1nc(C=O)nc1Cc1ccc(-c2ccccc2-c2nnn[nH]2)nc1 [Example 30, 5-[2-[5-[[1-butyl-3-formyl-1H-1,2,4-triazol-5-yl]methyl]-2-pyridinyl]phenyl]-1H-tetrazole]
IC50 [1]: 0.31 µM | Kb (rabbit aortic rings; [2]): 0.214 µM

CCCCn1nc(C(C)(OC)OC)nc1Cc1ccc(-c2ccccc2-c2nnn[nH]2)nc1 [Example 33, 5-[2-[5-[[1-butyl-3-(1,1-dimethoxyethyl)-1H-1,2,4-triazol-5-yl]methyl]-2-pyridinyl]phenyl]-1H-tetrazole]
IC50 [1]: 0.059 µM

CCCCn1nc(C(C)=O)nc1Cc1ccc(-c2ccccc2-c2nnn[nH]2)nc1 [Example 34, 5-[2-[5-[[1-butyl-3-(1-oxoethyl)-1H-1,2,4-triazol-5-yl]methyl]-2-pyridinyl]phenyl]-1H-tetrazole]
IC50 [1]: 0.39 µM

CCCCc1nc(Cc2ccc(-c3ccccc3-c3nnn[nH]3)nc2)n(CC(C)(C)C)n1 [Example 35, 5-[2-[5-[(1-neopentyl-3-butyl-1H-1,2,4-triazol-5-yl)methyl]-2-pyridinyl]phenyl]-1H-tetrazole]
IC50 [1]: 1.1 µM | Kb (rabbit aortic rings; [2]): 0.166 µM
